pKi: −log10 of the molar value. Read-outs that look alike come from different tables or passages of the source.
Target: PIM1 (Homo sapiens (Human), UniProt P11309)
Assay: biochemical
Type: biochemical
[1] = 20 pM PIM1, 1 μM FAM-peptide, 10 μM ATP, 90 minutes at room temperature, read-out: PIM1 LC3K (KI)

Sequence of PIM1 (P11309 whole entry): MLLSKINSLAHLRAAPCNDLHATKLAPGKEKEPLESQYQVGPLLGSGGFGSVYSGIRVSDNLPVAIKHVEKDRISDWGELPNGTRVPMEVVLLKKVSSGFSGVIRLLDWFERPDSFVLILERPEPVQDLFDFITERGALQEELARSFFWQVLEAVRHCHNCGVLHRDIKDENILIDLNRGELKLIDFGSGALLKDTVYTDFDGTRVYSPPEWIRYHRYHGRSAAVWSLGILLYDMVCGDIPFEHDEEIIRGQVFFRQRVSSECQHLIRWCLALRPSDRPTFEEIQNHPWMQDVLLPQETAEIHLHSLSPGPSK

pKi [1]	pKi	Compound
9.68	–	Cn1ncc(NC(=O)c2csc(-c3cnc4cccnc4c3)n2)c1[C@@H]1CC[C@@H](N)[C@H](F)CO1 [Example 399, N-[5-[(2S,5R,6S)-5-amino-6-fluoro-oxepan-2-yl]-1-methyl-pyrazol-4-yl]-2-(1,5-naphthyridin-3-yl)thiazole-4-carboxamide]
8.68	–	Cn1ncc(NC(=O)c2csc(-c3cccc(C(F)(F)F)n3)n2)c1[C@@H]1CC[C@@H](N)[C@H](F)CO1 [Example 314, N-(5-((2S,5R,6S)-5-amino-6-fluorooxepan-2-yl)-1-methyl-1H-pyrazol-4-yl)-2-(6-(trifluoromethyl)pyridin-2-yl)thiazole-4-carboxamide]
10.12	–	Cn1ncc(NC(=O)c2ccc(F)c(-c3c(F)cc(C(CO)CO)cc3F)n2)c1[C@@H]1CC[C@@H](N)[C@H](F)CO1 [Example 214, N-(5-((2S,5R,6S)-5-amino-6-fluorooxepan-2-yl)-1-methyl-1H-pyrazol-4-yl)-6-(4-(1,3-dihydroxypropan-2-yl)-2,6-difluorophenyl)-5-fluoropicolinamide]
9.32	–	CO[C@H]1COC(c2c(NC(=O)c3nc(-c4c(F)cccc4F)sc3N)cnn2C)CC[C@@H]1N (stereo partly drawn) [Example 128, 5-amino-N-(5-((5S,6R)-5-amino-6-methoxyoxepan-2-yl)-1-methyl-1H-pyrazol-4-yl)-2-(2,6-difluorophenyl)thiazole-4-carboxamide]
10.28	–	Cn1ncc(NC(=O)c2nc(-c3ccccc3F)sc2N)c1C12CCC(CN)(CC1)O2 [Example 139, 5-amino-N-[5-[1-(aminomethyl)-7-oxabicyclo[2.2.1]heptan-4-yl]-1-methyl-pyrazol-4-yl]-2-(2-fluorophenyl)thiazole-4-carboxamide]
10.77	–	CC(O)c1cc(F)c(-c2nc(C(=O)Nc3cnn(C)c3[C@@H]3CC[C@@H](N)[C@H](F)CO3)ccc2F)c(F)c1 (stereo partly drawn) [Example 207, N-(5-((2S,5R,6S)-5-amino-6-fluorooxepan-2-yl)-1-methyl-1H-pyrazol-4-yl)-6-(2,6-difluoro-4-(1-hydroxyethyl)phenyl)-5-fluoropicolinamide]
–	10.43	Cn1ncc(NC(=O)c2csc(-c3c(F)cc(C(O)C4CC4)cc3F)n2)c1[C@@H]1CC[C@@H](N)[C@H](F)CO1 (stereo partly drawn) [Example 275, N-(5-((2S,5R,6S)-5-amino-6-fluorooxepan-2-yl)-1-methyl-1H-pyrazol-4-yl)-2-(4-(cyclopropyl(hydroxy)methyl)-2,6-difluorophenyl)thiazole-4-carboxamide]
10.28	–	Cn1ncc(NC(=O)c2nc(-c3ccccc3C(F)(F)F)sc2N)c1[C@@H]1CC[C@@H](N)[C@@H](F)CO1 [Example 270, 5-amino-N-(5-((2S,5R,6R)-5-amino-6-fluorooxepan-2-yl)-1-methyl-1H-pyrazol-4-yl)-2-(2-(trifluoromethyl)phenyl)thiazole-4-carboxamide]
11.52	–	Cn1ncc(NC(=O)c2nc(-c3c(F)ccc(F)c3F)sc2N)c1[C@@H]1CC[C@@H](N)[C@H](F)CO1 [Example 332, 5-amino-N-(5-((2S,5R,6S)-5-amino-6-fluorooxepan-2-yl)-1-methyl-1H-pyrazol-4-yl)-2-(2,3,6-trifluorophenyl)thiazole-4-carboxamide]
8.51	–	Cn1ncc(NC(=O)c2csc(-c3c(F)cncc3Cl)n2)c1[C@@H]1CC[C@@H](N)[C@H](F)CO1 [Example 349, N-(5-((2S,5R,6S)-5-amino-6-fluorooxepan-2-yl)-1-methyl-1H-pyrazol-4-yl)-2-(3-chloro-5-fluoropyridin-4-yl)thiazole-4-carboxamide]
9.68	–	COC1(c2c(NC(=O)c3nc(-c4c(F)cccc4F)sc3N)cnn2C)CCCCO1 (centres unmarked) [Example 103, 5-amino-2-(2,6-difluorophenyl)-N-[5-(2-methoxytetrahydropyran-2-yl)-1-methyl-pyrazol-4-yl]thiazole-4-carboxamide]
10.72	–	COc1cc(F)c(-c2nc(C(=O)Nc3cnn(C)c3[C@@H]3CC[C@@H](N)[C@H](F)CO3)ccc2F)c(F)c1 [Example 201, N-(5-((2S,5R,6S)-5-amino-6-fluorooxepan-2-yl)-1-methyl-1H-pyrazol-4-yl)-6-(2,6-difluoro-4-methoxyphenyl)-5-fluoropicolinamide]
10.28	–	CC(O)c1cc(F)c(-c2nc(C(=O)Nc3cnn(C)c3[C@@H]3CC[C@@H](N)[C@@H](F)CO3)ccc2F)c(F)c1 (stereo partly drawn) [Example 210, N-(5-((2S,5R,6R)-5-amino-6-fluorooxepan-2-yl)-1-methyl-1H-pyrazol-4-yl)-6-(2,6-difluoro-4-(1-hydroxyethyl)phenyl)-5-fluoropicolinamide]
10.28	–	COc1ccc(-c2nc(C(=O)Nc3cnn(C)c3[C@@H]3CC[C@@H](N)[C@@H](F)CO3)cs2)c(F)c1 [Example 287, N-(5-((2S,5R,6R)-5-amino-6-fluorooxepan-2-yl)-1-methyl-1H-pyrazol-4-yl)-2-(2-fluoro-4-methoxyphenyl)thiazole-4-carboxamide]
10.25	–	COC1(c2cc(F)c(-c3nc(C(=O)Nc4cnn(C)c4[C@@H]4CC[C@@H](N)[C@H](F)CO4)ccc3F)c(F)c2)COC1 [Example 202, N-(5-((2S,5R,6S)-5-amino-6-fluorooxepan-2-yl)-1-methyl-1H-pyrazol-4-yl)-6-(2,6-difluoro-4-(3-methoxyoxetan-3-yl)phenyl)-5-fluoropicolinamide]
8.83	–	COc1ccc(C(F)F)c(F)c1-c1nc(C(=O)Nc2cnn(C)c2[C@@H]2CC[C@@H](N)[C@H](F)CO2)cs1 [Example 378, N-[5-[(2S,5R,6S)-5-amino-6-fluoro-oxepan-2-yl]-1-methyl-pyrazol-4-yl]-2-[3-(difluoromethyl)-2-fluoro-6-methoxy-phenyl]thiazole-4-carboxamide]
–	10.77	[2H]C([2H])([2H])O[C@H]1CO[C@@H](c2c(NC(=O)c3nc(-c4c(F)cccc4F)sc3N)cnn2C)CC[C@@H]1N [Example 180, 5-Amino-N-[5-[(2R,5S,6R)-5-amino-6-(trideuteriomethoxy)oxepan-2-yl]-1-methyl-pyrazol-4-yl]-2-(2,6-difluorophenyl)thiazole-4-carboxamide]
9.57	–	Cn1ncc(NC(=O)c2csc(-n3cc4c(n3)CCCC4)n2)c1[C@@H]1CC[C@@H](N)[C@H](F)CO1 [Example 390, N-(5-((2S,5R,6S)-5-amino-6-fluorooxepan-2-yl)-1-methyl-1H-pyrazol-4-yl)-2-(4,5,6,7-tetrahydro-2H-indazol-2-yl)thiazole-4-carboxamide]
10.49	–	Cn1ncc(NC(=O)c2nc(-c3c(F)cccc3F)sc2N)c1[C@]12CC[C@H](O1)[C@@H](O)CC2 [Example 106, 5-amino-2-(2,6-difluorophenyl)-N-(5-((1S,4S,5S)-4-hydroxy-8-oxabicyclo[3.2.1]octan-1-yl)-1-methyl-1H-pyrazol-4-yl)thiazole-4-carboxamide]
9.82	–	Cn1ncc(NC(=O)c2nc(-c3c(F)cccc3F)sc2N)c1[C@@H]1CC[C@@H](CN)O1 [Example 172, 5-Amino-N-[5-[(2S,5S)-5-(aminomethyl)tetrahydrofuran-2-yl]-1-methyl-pyrazol-4-yl]-2-(2,6-difluorophenyl)thiazole-4-carboxamide]
9.66	–	Cn1ncc(NC(=O)c2csc(-c3c(F)cccc3Cl)n2)c1[C@@H]1CC[C@@H](N)[C@H](F)CO1 [Example 284, N-(5-((2S,5R,6S)-5-amino-6-fluorooxepan-2-yl)-1-methyl-1H-pyrazol-4-yl)-2-(2-chloro-6-fluorophenyl)thiazole-4-carboxamide]
9.81	–	Cn1ncc(NC(=O)c2nc(-c3ccccc3OC(F)(F)F)sc2N)c1[C@@H]1CC[C@@H](N)[C@@H](F)CO1 [Example 266, 5-amino-N-(5-((2S,5R,6R)-5-amino-6-fluorooxepan-2-yl)-1-methyl-1H-pyrazol-4-yl)-2-(2-(trifluoromethoxy)phenyl)thiazole-4-carboxamide]
10.04	–	Cn1ncc(NC(=O)c2nc(-c3ccccc3C(F)F)sc2N)c1[C@@H]1CC[C@@H](N)[C@H](F)CO1 [Example 335, 5-amino-N-(5-((2S,5R,6S)-5-amino-6-fluorooxepan-2-yl)-1-methyl-1H-pyrazol-4-yl)-2-(2-(difluoromethyl)phenyl)thiazole-4-carboxamide]
10.52	–	Cn1ncc(NC(=O)c2ccc(F)c(-c3c(F)cc(OC4CCOCC4)cc3F)n2)c1[C@@H]1CC[C@@H](N)[C@@H](F)CO1 [Example 188, N-(5-((2S,5R,6R)-5-Amino-6-fluorooxepan-2-yl)-1-methyl-1H-pyrazol-4-yl)-6-(2,6-difluoro-4-((tetrahydro-2H-pyran-4-yl)oxy)phenyl)-5-fluoropicolinamide]
9.76	–	Cn1ncc(NC(=O)c2nc(-c3c(F)cccc3F)sc2N)c1[C@H]1C[C@@H](O)CCO1 [Example 149, 5-amino-2-(2,6-difluorophenyl)-N-(5-((2R,4S)-4-hydroxytetrahydro-2H-pyran-2-yl)-1-methyl-1H-pyrazol-4-yl)thiazole-4-carboxamide]
10.70	–	Cn1ncc(NC(=O)c2csc(-n3ncc4c3CCCC4)n2)c1[C@@H]1CC[C@@H](N)[C@H](F)CO1 [Example 389, N-(5-((2S,5R,6S)-5-amino-6-fluorooxepan-2-yl)-1-methyl-1H-pyrazol-4-yl)-2-(4,5,6,7-tetrahydro-1H-indazol-1-yl)thiazole-4-carboxamide]
8.24	–	Cn1ncc(NC(=O)c2csc(-c3cncc(F)c3)n2)c1[C@@H]1CC[C@@H](N)[C@@H](F)CO1 [Example 246, N-(5-((2S,5R,6R)-5-amino-6-fluorooxepan-2-yl)-1-methyl-1H-pyrazol-4-yl)-2-(5-fluoropyridin-3-yl)thiazole-4-carboxamide]
10.96	–	Cn1ncc(NC(=O)c2csc(-c3c(F)ccc4[nH]ccc34)n2)c1[C@@H]1CC[C@@H](N)[C@H](F)CO1 [Example 400, N-[5-[(2S,5R,6S)-5-amino-6-fluoro-oxepan-2-yl]-1-methyl-pyrazol-4-yl]-2-(5-fluoro-1H-indol-4-yl)thiazole-4-carboxamide]
9.27	–	Cn1ncc(NC(=O)c2csc(-c3cccc(-c4cccc(Cl)c4F)c3F)n2)c1[C@@H]1CC[C@@H](N)[C@@H](F)CO1 [Example 249, N-(5-((2S,5R,6R)-5-amino-6-fluorooxepan-2-yl)-1-methyl-1H-pyrazol-4-yl)-2-(3′-chloro-2,2′-difluoro-[1,1′-biphenyl]-3-yl)thiazole-4-carboxamide]

From patent US9328106B2, “Cyclic ether pyrazol-4-yl-heterocyclyl-carboxamide compounds and methods of use” (Genentech, Inc., priority 2012, dated 2016)
